Measurements published in patent publication US20110053873A1, “HSP90 INHIBITORS” (TAKEDA PHARMACEUTICAL COMPANY LIMITED, priority 2008, published 2011).

Tested on: cells
Experiment: not given
Conditions: cited from earlier work

In the case of `C#CCCCn1c(Cc2cc(OC)c(OC)c(OC)c2Cl)nc2c(N)nc(F)nc21` [PU24FCl], the “concentration range of biological effects on cells” value is listed as 2-6 μM.

Tested on: HSP90
Experiment: not given
Conditions: transformed cells vs normal tissues; cited from earlier work

For `C#CCCCn1c(Cc2cc(OC)c(OC)c(OC)c2Cl)nc2c(N)nc(F)nc21` [PU24FCl], the “higher affinity for HSP90 from transformed cells compared to that from normal tissues” value is given as 10-50 times.

Target: T1, HSP90α (Homo sapiens, UniProt P07900, I104V)
T1 construct: made in house; host or cells: E. coli (BL21)
Experiment: Enzyme binding (competition fluorescence polarization) assay with TSD-FP probe
Conditions: method of Example A-1; incubation time not stated; read-out: Binding Affinity IC50
Procedure: The reaction can be followed kinetically using fluorescence (excitation λ=485 nm; emission λ=538 nm). The binding affinity of the test compound to HSP90 is determined by the changes in the polarized fluorescence; the intensity of the polarized fluorescence is proportional to the fraction of bound probe. A novel small molecule fluorescence probe, (S,E)-5-(2-(2-amino-7-(4-fluoro-2-(6-methoxypyridin-2-yl)phenyl)-4-methyl-7,8-dihydroquinazolin-5(6H)-ylideneaminooxy)ethylcarbamoyl)-2-(6-hydroxy-3-oxo-3H-xanthene-9-yl)benzoic acid (TSD-FP probe) was specifically developed for the assay. Inhibition constants (IC50) may be calculated by non-linear curve fitting of the compound concentrations and fluorescence intensities to the standard IC50 equation.
1. Enzyme Binding (Fluorescence Polarization) Assay for HSP90 Inhibitors.
a. Preparation of HSP90c Protein
This example describes cloning, expression and purification of a protein comprising the N-terminal domain of HSP90α. It should be noted that a variety of other expression systems and hosts are also suitable for the expression of such protein, as would be readily appreciated by one of skill in the art.
The sequence of human wild-type HSP90α is well known in the art; see, Chen B. et al. Genomics 2005 86:627-637. The gene encoding HSP90α can be isolated from RNA, cDNA or cDNA libraries. In this case, the gene encoding residues 9-236 of image clone 5270926 of HSP90α (ATCC) was isolated. This portion of the gene encoding a section of human HSP90α that includes the N-terminal nucleotide binding domain of human HSP90 was cloned into pET28a vector (Novagen). The DNA sequence of the vector is shown in SEQ ID NO: 1. Expression from this vector produced a protein consisting of the recombinant N-terminal nucleotide binding domain of HSP90α with a cleavable 6×-histidine tag and a cleavage site at the N-terminus. The amino acid sequence of this recombinant protein is shown in SEQ ID NO: 2.
Recombinant human N-terminal truncated His6-HSP90α was expressed in E. coli (BL21) cells with IPTG induction. Cell paste from 24×60 mL tubes (grown in a multi-tube airlift fermentor) was lysed using an automated sample lyser. Briefly, the pellet in each tube was suspended in 21 mL of lysis buffer consisting of 50 mM Tris pH 7.9, 50 mM NaCl, 1 mM MgCl2, 0.6 g/L Lysozyme (Sigma), 100 μL/L Benzonase (Novagen). […] After incubation, 5 M NaCl was added to bring the final salt concentration to 400 mM. The tubes were sonicated for 50 seconds and then centrifuged at 3400 rpm for 50 min. The supernatants were pooled and 4 ml of ProBond Ni resin (Invitrogen) was added. After at least 30 minutes, the resin was spun down, washed with 25 mM Tris pH 7.6, 400 mM NaCl, 20 mM imidazole, poured into a column and washed with 10 column volumes of the same buffer. The protein was eluted from the column using 3 column volumes of 25 mM Tris pH 7.6, 400 mM NaCl, 400 mM imidazole. The eluate was loaded onto a Supedex 200 column (GE Healthcare) equilibrated with 25 mM Tris pH 7.6, 250 mM NaCl, 0.25 mM TCEP, 1 mM EDTA and peak fractions were pooled and concentrated to ˜6 mg/mL using 10 kDA MWCO centrifugal concentrators (Millipore). Aliquots were flash frozen in liquid nitrogen and stored at −80° C. All purification was done at 4° C.
b. Preparation of the Fluorescence Polarization Probe.
A fluorescein labeled small molecule was designed and synthesized as a probe (TSD-FP probe) for the determination of the binding affinity of the test compound to HSP90 proteins. The synthesis of the small molecule, (S,E)-2-amino-7-(4-fluoro-2-(6-methoxypyridin-2-yl)phenyl)-4-methyl-7,8-dihydroquinazolin-5(6H)-one O-2-aminoethyl oxime (Compound 24) was described in Examples 24 and 25 above. The TSD-FP probe was prepared according to the following procedure:
c. Assaying the In Vitro Enzymatic Activity of HSP90 Inhibitors.
The inhibitory effect of the compounds of the invention against HSP90α was determined by fluorescence polarization assay.

In order of rising IC50:
1. COc1cccc(-c2cc(F)ccc2[C@H]2Cc3nc(N)nc(C)c3/C(=N/O)N2)n1 [Compound 61, (R,Z)-2-amino-7-(4-fluoro-2-(6-methoxypyridin-2-yl)phenyl)-4-methyl-7,8-dihydropyrido[4,3-d]pyrimidin-5(6H)-one oxime]  3 nM
2. COc1cccc(-c2cc(F)ccc2[C@H]2Cc3nc(N)nc(C)c3/C(=N/OC[C@H](O)CO)N2)n1 [Compound 33, (R,Z)-2-Amino-7-(4-fluoro-2-(6-methoxypyridin-2-yl)phenyl)-4-methyl-7,8-dihydropyrido[4,3-d]pyrimidin-5(6H)-one O—(R)-2,3-dihydroxypropyl oxime]  4 nM
3. COc1cccc(-c2cc(F)ccc2[C@H]2Cc3nc(N)nc(C)c3C(NOCCCO)=N2)n1 [Compound 78, (R,Z)-2-amino-7-(4-fluoro-2-(6-methoxypyridin-2-yl)phenyl)-4-methyl-7,8-dihydropyrido[4,3-d]pyrimidin-5(6H)-one O-3-hydroxypropyl oxime]  4 nM
4. COc1cccc(-c2cc(F)ccc2[C@H]2Cc3nc(N)nc(C)c3/C(=N/OCC(=O)N3CC[C@@H](F)C3)N2)n1 [Compound 85, 2-((Z)-((R)-2-amino-7-(4-fluoro-2-(6-methoxypyridin-2-yl)phenyl)-4-methyl-7,8-dihydropyrido[4,3-d]pyrimidin-5(6H)-ylidene)aminooxy)-1-((R)-3-fluoropyrrolidin-1-yl)ethanone]  4 nM
5. COc1cccc(-c2cc(F)ccc2[C@H]2Cc3nc(N)nc(C)c3C(NOC3C[C@@H](O)[C@@H](O)C3)=N2)n1 (stereo partly drawn) [Compound 58, (7R,Z)-2-amino-7-(4-fluoro-2-(6-methoxypyridin-2-yl)phenyl)-4-methyl-7,8-dihydropyrido[4,3-d]pyrimidin-5(6H)-one O-(3R,4S)-3,4-dihydroxycyclopentyl oxime]  5 nM
6. COc1cccc(-c2cc(F)ccc2[C@H]2Cc3nc(N)nc(C)c3/C(=N/OCC[C@H](O)CO)N2)n1 [Compound 37, (R,Z)-2-amino-7-(4-fluoro-2-(6-methoxypyridin-2-yl)phenyl)-4-methyl-7,8-dihydropyrido[4,3-d]pyrimidin-5(6H)-one O—(S)-3,4-dihydroxybutyl oxime]  6 nM
7. COc1cccc(-c2cc(F)ccc2[C@H]2Cc3nc(N)nc(C)c3/C(=N/OCCCCO)N2)n1 [Compound 79, (R,Z)-2-amino-7-(4-fluoro-2-(6-methoxypyridin-2-yl)phenyl)-4-methyl-7,8-dihydropyrido[4,3-d]pyrimidin-5(6H)-one O-4-hydroxybutyl oxime]  6 nM
8. COc1cccc(-c2cc(F)ccc2[C@H]2Cc3nc(N)nc(C)c3C(NOCC3C[C@@H](O)[C@@H](O)C3)=N2)n1 (stereo partly drawn) [Compound 59, (7R,Z)-2-amino-7-(4-fluoro-2-(6-methoxypyridin-2-yl)phenyl)-4-methyl-7,8-dihydropyrido[4,3-d]pyrimidin-5(6H)-one O-((3R,4S)-3,4-dihydroxycyclopentyl)methyl oxime]  8 nM
9. COc1cccc(-c2cc(F)ccc2[C@H]2Cc3nc(N)nc(C)c3C(NOCC(=O)N(C)C)=N2)n1 [Compound 83, (R,Z)-2-(2-amino-7-(4-fluoro-2-(6-methoxypyridin-2-yl)phenyl)-4-methyl-7,8-dihydropyrido[4,3-d]pyrimidin-5(6H)-ylideneaminooxy)-N,N-dimethylacetamide]  8 nM
10. COc1cccc(-c2cc(F)ccc2[C@H]2Cc3nc(N)nc(C)c3/C(=N/O[C@@H](CCO)C(=O)N(C)C)N2)n1 [Compound 93, (S)-2-((Z)-((R)-2-amino-7-(4-fluoro-2-(6-methoxypyridin-2-yl)phenyl)-4-methyl-7,8-dihydropyrido[4,3-d]pyrimidin-5(6H)-ylidene)aminooxy)-4-hydroxy-N,N-dimethylbutanamide]  8 nM
11. COc1cccc(-c2cc(F)ccc2[C@H]2Cc3nc(N)nc(C)c3/C(=N/OCC(=O)N(C)CCO)N2)n1 [Compound 99, (R,Z)-2-(2-amino-7-(4-fluoro-2-(6-methoxypyridin-2-yl)phenyl)-4-methyl-7,8-dihydropyrido[4,3-d]pyrimidin-5(6H)-ylideneaminooxy)-N-(2-hydroxyethyl)-N-methylacetamide]  8 nM
12. COc1cccc(-c2cc(F)ccc2[C@H]2Cc3nc(N)nc(C)c3C(NOCC3CCC(O)CC3)=N2)n1 (stereo partly drawn) [Compound 65, (R,Z)-2-amino-7-(4-fluoro-2-(6-methoxypyridin-2-yl)phenyl)-4-methyl-7,8-dihydropyrido[4,3-d]pyrimidin-5(6H)-one O-((1s,4S)-4-hydroxycyclohexyl)methyl oxime]  10 nM
13. COc1cccc(-c2cc(F)ccc2[C@H]2Cc3nc(N)nc(C)c3C(NOCC(CO)CO)=N2)n1 [Compound 35, (R,Z)-2-Amino-7-(4-fluoro-2-(6-methoxypyridin-2-yl)phenyl)-4-methyl-7,8-dihydropyrido[4,3-d]pyrimidin-5(6H)-one O-3-hydroxy-2-(hydroxymethyl)propyl oxime]  13 nM
14. COc1cccc(-c2cc(F)ccc2[C@H]2Cc3nc(N)nc(C)c3C(NOCC(=O)N(C)C[C@H](O)CO)=N2)n1 [Compound 96, 2-((Z)-((R)-2-amino-7-(4-fluoro-2-(6-methoxypyridin-2-yl)phenyl)-4-methyl-7,8-dihydropyrido[4,3-d]pyrimidin-5(6H)-ylidene)aminooxy)-N—((S)-2,3-dihydroxypropyl)-N-methylacetamide]  13 nM
